These molecules were tested against T1, Melatonin receptor (Gallus gallus, UniProt P49288+P51050+P49285) (assay: Binding affinity towards melatonin receptor in chicken brain.).
`CCC(=O)NCCCc1cccc(OC)c1` gave a Ki of 5.6 nM.
In the case of `CCCCC(=O)NCCCCc1ccccc1OC`, the Ki was 9190 nM.
Molecule `CCCC(=O)NCCc1ccc(OC)cc1` has a Ki of 17900 nM.
`CCC(=O)NCCCCc1ccc(OC)cc1` showed a Ki of 1400 nM.
For `CCCC(=O)NCCc1ccccc1OC`, the Ki was 69 nM.
Work on `CCCCC(=O)NCCCCc1cccc(OC)c1` yielded a Ki of 9670 nM.
With `CCC(=O)NCCCc1ccccc1OC` the Ki was 374 nM.
Molecule `CCC(=O)NCCCCc1cccc(OC)c1` has a Ki of 119 nM.
`CCC(=O)NCc1cccc(OC)c1` was tested, and the Ki was 22000 nM.
`CCCCC(=O)NCCc1ccc(OC)cc1` was tested, and the Ki was 70800 nM.
For `CCC(=O)NCCc1c[nH]c2ccc(OC)cc12`, the Ki was 0.19 nM.
`COc1ccc(CCCNC(C)=O)cc1` gave a Ki of 14000 nM.
`CCCC(=O)NCCc1ccc(OC)c(OC)c1` gave a Ki of 59 nM.
In the case of `CCCC(=O)NCCCc1cccc(F)c1`, the Ki was 434 nM.
`CCCC(=O)NCCCCc1ccc(OC)cc1` showed a Ki of 822 nM.
`COc1ccc(CCNC(C)=O)cc1OC` gave a Ki of 870 nM.
With `COc1cccc(CCCNC(C)=O)c1` the Ki was 63 nM.
In the case of `CCCC(=O)NCCCCc1ccccc1OC`, the Ki was 116 nM.
Molecule `CCCC(=O)NCc1cccc(OC)c1` has a Ki of 13000 nM.
For `COc1ccc(CCCCNC(C)=O)cc1`, the Ki was 7300 nM.
In the case of `CCCC(=O)NCCCc1cccc(Br)c1`, the Ki was 354 nM.
Work on `CCC(=O)NCCc1ccccc1OC` yielded a Ki of 135 nM.
Work on `CCCC(=O)NCCCc1ccccc1OC` yielded a Ki of 442 nM.
`COc1ccccc1CCCNC(C)=O` was tested, and the Ki was 1430 nM.
Molecule `CCCCC(=O)NCCc1cccc(OC)c1` has a Ki of 741 nM.
`CCCC(=O)NCCc1cccc(OC)c1` gave a Ki of 40 nM.
`CCC(=O)NCCCc1cccc(F)c1` gave a Ki of 740 nM.
Work on `CCC(=O)NCCCc1ccc(OC)cc1` yielded a Ki of 2900 nM.
Molecule `COc1ccccc1CCNC(C)=O` has a Ki of 573 nM.
Molecule `COc1cccc(CNC(C)=O)c1` has a Ki of 57000 nM.
Molecule `CCC(=O)NCCCc1cccc(Br)c1` has a Ki of 318 nM.
Molecule `CC(=O)NCCCc1cccc(Br)c1` has a Ki of 852 nM.
In the case of `CCCCC(=O)NCCc1ccccc1OC`, the Ki was 16000 nM.
Work on `CCC(=O)NCCc1ccc(OC)c(OC)c1` yielded a Ki of 130 nM.
`CCC(=O)NCCc1ccc(OC)cc1` gave a Ki of 19200 nM.
Molecule `CC(=O)NCCCc1cccc(F)c1` has a Ki of 1920 nM.
In the case of `CCCCC(=O)NCCCCc1ccc(OC)cc1`, the Ki was 7000 nM.
`COc1ccc2c(c1)c1c(n2C)CCCC1CNC(C)=O` (stereo unspecified) gave a Ki of 0.97 nM.
For `CCCC(=O)NCCCCc1cccc(OC)c1`, the Ki was 208 nM.
`CCCC(=O)NCCCc1cccc(OC)c1` gave a Ki of 5.5 nM.
Molecule `CCC(=O)NCCc1cccc(OC)c1` has a Ki of 62 nM.
`CCC(=O)NCCCCc1ccccc1OC` gave a Ki of 339 nM.
`CC(=O)NCCCc1cccc(Cl)c1` was tested, and the Ki was 636 nM.
`CCCCC(=O)NCCCc1cccc(Cl)c1` was tested, and the Ki was 15100 nM.
In the case of `CCCC(=O)NCCCc1ccc(OC)cc1`, the Ki was 860 nM.
In the case of `CCCCC(=O)NCCCc1ccccc1OC`, the Ki was > 100000 nM.
`COc1ccc(Br)cc1CCN` showed a Ki of 8 nM.
For `CCCC(=O)NCCCc1cccc(Cl)c1`, the Ki was 113 nM.

What follows are molecules tested against T1, Melatonin receptor (assay: Binding affinity towards melatonin receptor in Chicken brain Experiment 1).
For `COc1ccc(CCNC(C)=O)cc1`, the Ki was > 100000 nM.
`COc1cccc(CCNC(C)=O)c1` showed a Ki of 958 nM.

Each molecule was assayed against T1, Melatonin receptor (assay: Binding affinity towards melatonin receptor in Chicken brain Experiment 2).
For `COc1ccc(CCNC(C)=O)cc1`, the Ki was > 1000 nM.
